Reference: ChEMBL document CHEMBL2203024, “Synthesis of 6"-triazole-substituted α-GalCer analogues as potent iNKT cell stimulating ligands” (Bioorg Med Chem, 2012)
The source made the active and inactive calls. The rule behind the calls is not given here.

These compounds were tested on iNKT (assay: Antigenic activity in mouse iNKT cells co-cultured with N38-2C12 cells assessed as potentiation of glycolipid loaded bone marrow dendritic cells-induced IL-2 secretion by ELISA).
Type: functional, cell-based

| SMILES | Activity |
| --- | --- |
| CCCCCCCCCCCCCCCCCCCCCCCCCC(=O)N[C@@H](CO[C@H]1O[C@H](Cn2cc(-c3ccccc3)nn2)[C@H](O)[C@H](O)[C@H]1O)[C@H](O)[C@H](O)CCCCCCCCCCCCCC | Active |
| CCCCCCCCCCCCCCCCCCCCCCCCCC(=O)N[C@@H](CO[C@H]1O[C@H](Cn2ccnn2)[C@H](O)[C@H](O)[C@H]1O)[C@H](O)[C@H](O)CCCCCCCCCCCCCC | Active |
| CCCCCCCCCCCCCCCCCCCCCCCCCC(=O)N[C@@H](CO[C@H]1O[C@H](Cn2cc(CCCc3ccccc3)nn2)[C@H](O)[C@H](O)[C@H]1O)[C@H](O)[C@H](O)CCCCCCCCCCCCCC | Active |
| CCCCCCCCCCCCCCCCCCCCCCCCCC(=O)N[C@@H](CO[C@H]1O[C@H](Cn2cc(Cc3ccccc3)nn2)[C@H](O)[C@H](O)[C@H]1O)[C@H](O)[C@H](O)CCCCCCCCCCCCCC | Active |
| CCCCCCCCCCCCCCCCCCCCCCCCCC(=O)N[C@@H](CO[C@H]1O[C@H](Cn2cc(CCc3ccccc3)nn2)[C@H](O)[C@H](O)[C@H]1O)[C@H](O)[C@H](O)CCCCCCCCCCCCCC | Active |
| CCCCCCCCCCCCCCCCCCCCCCCCCC(=O)N[C@@H](CO[C@H]1O[C@H](Cn2cc(CCCC)nn2)[C@H](O)[C@H](O)[C@H]1O)[C@H](O)[C@H](O)CCCCCCCCCCCCCC | Active |
